Experimental data published in article PMC9374744, “Structural basis for receptor selectivity and inverse agonism in S1P5 receptors” (Nature Communications, 2022).
“And” between values parts separate entries of the source, which are not always exact repeats. Equal entries are not always repeated.

Columns and labels:
human S1P5 K24A mutant = human S1P5 K24A mutant (Homo sapiens, UniProt Q9H228, K24A); assay: BRET-based cAMP Gi signaling assay, S1P5 K24A; conditions: inverse agonism
human S1P5 L292A mutant = human S1P5 L292A mutant (Homo sapiens, UniProt Q9H228, L292A); assay: BRET-based cAMP Gi signaling assay, S1P5 L292A; conditions: inverse agonism
human S1P5 M296W mutant = human S1P5 M296W mutant (Homo sapiens, UniProt Q9H228, M296W); assay: BRET-based cAMP Gi signaling assay, S1P5 M296W; conditions: for BRET ratio, single replicate readings (Supplementary Figure 6h): listed as ONO
human S1P5 Y19A mutant = human S1P5 Y19A mutant (Homo sapiens, UniProt Q9H228, Y19A); assay: BRET-based cAMP Gi signaling assay, S1P5 Y19A; conditions: inverse agonism
human S1P5 V115L mutant = human S1P5 V115L mutant (Homo sapiens, UniProt Q9H228, V115L); assay: BRET-based cAMP Gi signaling assay, S1P5 V115L; conditions: inverse agonism
human S1P5 N92A mutant = human S1P5 N92A mutant (Homo sapiens, UniProt Q9H228, N92A); assay: BRET-based cAMP Gi signaling assay, S1P5 N92A; conditions: inverse agonism
[1] = Figure 2c source data, N/R = no response

Sequence of human S1P5 V115L mutant (Q9H228 whole entry V115L): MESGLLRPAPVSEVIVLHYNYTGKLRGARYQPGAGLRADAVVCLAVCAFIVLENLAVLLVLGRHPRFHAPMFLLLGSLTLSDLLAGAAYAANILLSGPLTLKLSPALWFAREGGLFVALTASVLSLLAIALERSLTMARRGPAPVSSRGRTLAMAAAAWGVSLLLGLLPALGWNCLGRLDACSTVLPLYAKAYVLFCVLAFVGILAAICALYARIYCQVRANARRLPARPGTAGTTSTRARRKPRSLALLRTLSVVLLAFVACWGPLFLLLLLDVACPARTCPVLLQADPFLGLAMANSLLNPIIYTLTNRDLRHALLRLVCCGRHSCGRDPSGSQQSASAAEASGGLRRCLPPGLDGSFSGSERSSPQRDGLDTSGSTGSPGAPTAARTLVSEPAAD
Sequence of human S1P5 M296W mutant (Q9H228 whole entry M296W): as the sequence (Q9H228 whole entry V115L) above, with L115V, M296W counted along it
Sequence of human S1P5 L292A mutant (Q9H228 whole entry L292A): as the sequence (Q9H228 whole entry V115L) above, with L115V, L292A counted along it
Sequence of human S1P5 Y19A mutant (Q9H228 whole entry Y19A): as the sequence (Q9H228 whole entry V115L) above, with Y19A, L115V counted along it
Sequence of human S1P5 K24A mutant (Q9H228 whole entry K24A): as the sequence (Q9H228 whole entry V115L) above, with K24A, L115V counted along it
Sequence of human S1P5 N92A mutant (Q9H228 whole entry N92A): as the sequence (Q9H228 whole entry V115L) above, with N92A, L115V counted along it

## O=C(O)CCCN1CCc2cccc(OCCc3cccc4ccccc34)c2CC1 [ONO-5430608, 4-{6-[2-(1-naphthyl)ethoxy]-1,2,4,5-tetrahydro-3H-3-benzazepin-3-yl} butanoic acid]
Human S1P5 K24A mutant; [1]
  ONO-5430608 pEC50, single experiments #1-#3: N/R
Human S1P5 K24A mutant; n=3, N/R = no response
  ONO, pEC50, M: N/R
Human S1P5 L292A mutant; ONO, pEC50, M, L292A, mean ± SD, n=3
  EC50: 21.9 nM
Human S1P5 L292A mutant; ONO-5430608 pEC50, single experiments #1-#3, L292A, Figure 2c source data
  EC50: 18.9 nM and 24 nM and 23.2 nM
Human S1P5 M296W mutant; [ONO] 0.169351 nM
  BRET ratio, single replicate readings (Supplementary Figure 6h): 0.7521 and 0.7659 and 0.7554 and 0.7607 and 0.7663 and 0.7553 and 0.7695 and 0.7638 and 0.7661
Human S1P5 M296W mutant; [ONO] 0.508053 nM
  BRET ratio, single replicate readings (Supplementary Figure 6h): 0.7597 and 0.7659 and 0.7636 and 0.7627 and 0.756 and 0.7622 and 0.7625 and 0.7687 and 0.7621
Human S1P5 M296W mutant; [ONO] 1.52416 nM
  BRET ratio, single replicate readings (Supplementary Figure 6h): 0.7595 and 0.7589 (2×) and 0.7566 and 0.7528 and 0.7609 and 0.7625 and 0.7671 and 0.7682
Human S1P5 M296W mutant; [ONO] 4.57247 nM
  BRET ratio, single replicate readings (Supplementary Figure 6h): 0.7595 and 0.7699 and 0.7641 and 0.7574 and 0.7643 and 0.7563 and 0.7684 and 0.7632 and 0.7578
Human S1P5 M296W mutant; [ONO] 13.7174 nM
  BRET ratio, single replicate readings (Supplementary Figure 6h): 0.7542 and 0.7653 and 0.7527 and 0.7649 and 0.7654 and 0.7644 and 0.7698 and 0.7669 and 0.7638
Human S1P5 M296W mutant; [ONO] 41.1523 nM
  BRET ratio, single replicate readings (Supplementary Figure 6h): 0.7431 and 0.7677 and 0.7621 and 0.752 and 0.762 and 0.7675 and 0.761 and 0.7565 and 0.7598
Human S1P5 M296W mutant; [ONO] 123.457 nM
  BRET ratio, single replicate readings (Supplementary Figure 6h): 0.7416 and 0.7628 and 0.7677 and 0.7662 and 0.759 and 0.753 and 0.7663 and 0.7668 and 0.7626
Human S1P5 M296W mutant; [ONO] 370.37 nM
  BRET ratio, single replicate readings (Supplementary Figure 6h): 0.7572 and 0.757 and 0.7547 and 0.7694 and 0.7517 and 0.7654 and 0.7672 and 0.761 and 0.7564
Human S1P5 M296W mutant; [ONO] 1111.11 nM
  BRET ratio, single replicate readings (Supplementary Figure 6h): 0.7578 and 0.7573 and 0.7667 and 0.7569 and 0.7627 and 0.7676 and 0.756 and 0.7697 and 0.7628
Human S1P5 M296W mutant; [ONO] 3333.33 nM
  BRET ratio, single replicate readings (Supplementary Figure 6h): 0.7629 and 0.7592 and 0.7535 and 0.7543 and 0.758 and 0.7671 and 0.744 and 0.7683 and 0.7586
Human S1P5 M296W mutant; inverse agonism, Figure 2c source data, N/R = no response
  ONO-5430608 pEC50, single experiments #1-#3: N/R
Human S1P5 M296W mutant; inverse agonism, n=3, N/R = no response
  ONO, pEC50, M: N/R
Human S1P5 Y19A mutant; [1]
  ONO-5430608 pEC50, single experiments #1-#3: N/R
Human S1P5 Y19A mutant; n=3, N/R = no response
  ONO, pEC50, M: N/R
Human S1P5 V115L mutant; ONO, pEC50, M, V115L, mean ± SD, n=3
  EC50: 25.1 nM
Human S1P5 V115L mutant; ONO-5430608 pEC50, single experiments #1-#3, V115L, Figure 2c source data
  EC50: 20.7 nM and 25.9 nM and 22.9 nM
Human S1P5 N92A mutant; [1]
  ONO-5430608 pEC50, single experiments #1-#3: N/R
Human S1P5 N92A mutant; n=3, N/R = no response
  ONO, pEC50, M: N/R
